Key:
Format in all cases: in vivo, rat
[1] = tested on: rats with middle cerebral artery occlusion; test: Cerebral microcirculatory blood flow in rats with middle cerebral artery occlusion
Protocol: 60 SD rats with a body weight of 220±20 g were randomly divided into normal control group, model control group, salvianic acid injection group (ip. 1 mL/kg), and group of bornyl β-(3,4-dihydroxylphenyl)-α-hydroxylpropionate ester at a small, middle and large dose respectively (ip. 5, 15, and 35 mg/kg). The rats of normal group and model group were administered with equal-volume of physiologic saline by ip. The rats were anesthetized by intraperitoneal injection of 1% pentobarbital sodium at an amount of 40 mg/kg, then placed at supine position, head fixed, and cut skin along cervical middle line. Trachea cannula, was inserted into the rats and they were allowed to spontaneous respire. Right common jugular vein and common carotid artery were isolated and a suture was introduced for later use. Animals were fixed on a rat stereotaxic apparatus, a cranial window with a size of 6×8 mm was opened at the right temple with a dental drill, after hemostasis, cerebral dura mater was cut open with scissors to expose cerebral pia mater. The window was covered and sealed with glass and dental cement, and the laser probe of a laser-doppler microcirculatory blood flow meter was fixed on the cranial window. Then the animals were fixed at lateral position, the right common carotid artery was lifted, ligated at the proximal part and carefully cut with scissors, a nylon suture having a diameter of about 0.3 mm was introduced into the artery. The distance between the artery cut and the paropia of the rats was marked before the suture was introduced. […] When the suture arrived at middle cerebral artery, an abrupt decrease of the microcirculatory blood flow would be observed. After the observation of a decrease in the microcirculatory blood flow, the suture was further penetrated by about 1 mm, and the distal end of the cut and the suture in the artery were ligated securely. Spare suture was cut-off. After the end of the test, it was checked whether the nylon suture blocked the initiation site of the middle cerebral artery, and the data of any animal whose artery was not blocked were cancelled. The animals of the control group were not treated. After the cranial window was prepared, the probe of J I2200 type laser-doppler microcirculatory blood flow meter was fixed at the cranial window, and the probe was maintained without displacement and rotation during the whole test. The microcirculatory blood flows before ligation and 5, 15, 30, 45 and 60 min after ligation were recorded, and the data of the animals in the drug-treatment groups were recorded at the same time points. The mean microcirculatory blood flow observed within 1 min at each time point was designated as the microcirculatory blood flow of the respective time point.

[2] = tested on: rats with acute myocardial ischemia; test: Area of myocardial infarction in rats with acute myocardial ischemia (coronary artery ligation); conditions: 24 h after coronary artery ligation
Protocol: (§1) At 0.5 h after the rats of these groups were administered intragastrically, the standard II lead electrocardiogram (before modeling) was recorded, and the height of ST-T segment was measured. The rats of sham operation group were then subjected to coronary artery braid without ligation, and the rats of other groups were subjected to coronary artery ligation in accordance with the following method to establish cute myocardial ischemia models. The rats were subjected to etherization, fixed at supine position, and their normal electrocardiograms (before modeling) were recorded. The skin of left thorax was incised under aseptic conditions, the 4th intercostal muscles were isolated in blunt way, the heart was extruded by light pressure to the right thorax, the left anterior descending coronary artery was ligated at a position 2˜3 mm departing from the left coronary artery origin and between the pulmonary conus and the left auricle of heart, then the heart was sent back to thorax cavity immediately and sutured the incision. Penicillin was smeared topically for the prevention of infections. After operation, the electrocardiogram of postischemia was recorded immediately (at 0 min after modeling), and the height of ST-T segment was measured.

[3] = tested on: rats with acute myocardial ischemia; test: ST-T segment of ECG in rats with myocardial ischemia
Protocol: as §1

[4] = 10 mg/kg intragastric, 0 min after modeling
[5] = 10 mg/kg intragastric, 24 h after modeling
[6] = 20 mg/kg intragastric, 0 min after modeling
[7] = 20 mg/kg intragastric, 24 h after modeling
[8] = 40 mg/kg intragastric, 0 min after modeling
[9] = 40 mg/kg intragastric, 24 h after modeling

For `CC1(C)C2CCC1(C)C(OC(=O)C(O)Cc1ccc(O)c(O)c1)C2` (stereo not drawn) [bornyl salvianate ester, bornyl β-(3,4-dihydroxylphenyl)-α-hydroxylpropionate ester], the Microcirculatory blood flow ([1]; 5 mg/kg ip, 5 min after ligation) was 11.4 ± 5.4 mL, the Microcirculatory blood flow ([1]; 5 mg/kg ip, 15 min after ligation) was 12.4 ± 4.6 mL and the Microcirculatory blood flow ([1]; 5 mg/kg ip, 30 min after ligation) was 12.9 ± 5.1 mL. The Microcirculatory blood flow ([1]; 5 mg/kg ip, 45 min after ligation) was 16.1 ± 4.1 mL, the Microcirculatory blood flow ([1]; 5 mg/kg ip, 60 min after ligation) was 16.0 ± 6.9 mL and the Microcirculatory blood flow ([1]; 15 mg/kg ip, 5 min after ligation) was 9.4 ± 3.7 mL. For the same compound, the Microcirculatory blood flow ([1]; 15 mg/kg ip, 15 min after ligation) was 12.8 ± 5.6 mL, the Microcirculatory blood flow ([1]; 15 mg/kg ip, 30 min after ligation) was 20.7 ± 3.2 mL and the Microcirculatory blood flow ([1]; 15 mg/kg ip, 45 min after ligation) was 25.0 ± 5.2 mL. The Microcirculatory blood flow ([1]; 15 mg/kg ip, 60 min after ligation) was 24.4 ± 4.8 mL, the “cerebral microcirculatory blood flow (in words)” value ([1]; 15 mg/kg, 30 minutes after the administration) was “increased slightly” and the Microcirculatory blood flow ([1]; 35 mg/kg ip, 5 min after ligation) was 10.8 ± 2.7 mL. It also gave a Microcirculatory blood flow ([1]; 35 mg/kg ip, 15 min after ligation) of 19.4 ± 5.1 mL, a Microcirculatory blood flow ([1]; 35 mg/kg ip, 30 min after ligation) of 32.7 ± 6.2 mL and a Microcirculatory blood flow ([1]; 35 mg/kg ip, 45 min after ligation) of 35.4 ± 8.2 mL. For the same compound, the Microcirculatory blood flow ([1]; 35 mg/kg ip, 60 min after ligation) was 35.2 ± 5.8 mL, the “cerebral microcirculatory blood flow (in words)” value ([1]; 35 mg/kg, 15 minutes after the administration) was “increased slightly” and the Infarct region weight ([2]; 10 mg/kg intragastric) was 0.20 ± 0.05 g. The Non-infarct region weight ([2]; 10 mg/kg intragastric) was 0.47 ± 0.07 g, the “Percentage (infarct cardiac muscles of whole ventricle, by weight)” value (“Percentage” for short) ([2]; 10 mg/kg intragastric) was 30.09 ± 5.69% and the Ventricle weight ([2]; 10 mg/kg intragastric) was 0.68 ± 0.09 g. For the same compound, the Infarct region weight ([2]; 20 mg/kg intragastric) was 0.18 ± 0.05 g, the Non-infarct region weight ([2]; 20 mg/kg intragastric) was 0.49 ± 0.09 g and the “Percentage” value ([2]; 20 mg/kg intragastric) was 25.73 ± 6.35 %. For the same compound, the Ventricle weight ([2]; 20 mg/kg intragastric) was 0.68 ± 0.08 g, the Infarct region weight ([2]; 40 mg/kg intragastric) was 0.18 ± 0.04 g and the Non-infarct region weight ([2]; 40 mg/kg intragastric) was 0.45 ± 0.06 g. The “Percentage” value ([2]; 40 mg/kg intragastric) was 28.95 ± 5.57 %, the Ventricle weight ([2]; 40 mg/kg intragastric) was 0.63 ± 0.07 g and the “Elevation of ST-T segment” value [3, 4] was 0.24 ± 0.24 mV. The “Elevation of ST-T segment, Change rate” value [3, 4] was 95.00 ± 78.34%, the “Elevation of ST-T segment” value [3, 5] was 0.17 ± 0.09 mV and the “Elevation of ST-T segment, Change rate” value [3, 5] was 49.00 ± 36.27%. The “Elevation of ST-T segment” value ([3]; 10 mg/kg intragastric, before modeling) was 0.21 ± 0.06 mV, the “Elevation of ST-T segment” value [3, 6] was 0.13 ± 0.16 mV and the “Elevation of ST-T segment, Change rate” value [3, 6] was 91.61 ± 116.85%. For the same compound, the “Elevation of ST-T segment” value [3, 7] was 0.11 ± 0.10 mV, the “Elevation of ST-T segment, Change rate” value [3, 7] was 60.77 ± 39.69% and the “Elevation of ST-T segment” value ([3]; 20 mg/kg intragastric, before modeling) was 0.17 ± 0.07 mV. For the same compound, the “Elevation of ST-T segment” value [3, 8] was 0.36 ± 0.17 mV, the “Elevation of ST-T segment, Change rate” value [3, 8] was 103.87 ± 148.26% and the “Elevation of ST-T segment” value [3, 9] was 0.18 ± 0.07 mV. The “Elevation of ST-T segment, Change rate” value [3, 9] was 29.01 ± 18.99 % and the “Elevation of ST-T segment” value ([3]; 40 mg/kg intragastric, before modeling) was 0.21 ± 0.06 mV.
